Measured values from US20140357633A1, “COMPOUNDS FOR INHIBITING THE INTERACTION OF BCL2 WITH BINDING PARTNERS” (NOVARTIS AG, priority 2011, published 2014).
Values joined by “and” are separate entries in the source; they are usually repeats but may differ in a detail not shown here. Equal entries are not always repeated.

What was measured:
[1] = molecular target: BCL-2 (binding to BAD peptide) (Homo sapiens, UniProt P10415); assay: SPR (Biacore) solution inhibition assay, BCL-2 binding to immobilized BAD peptide; details: biotinylated BAD peptide surface, 56 nM BCL-2, 25° C.; range = high and low IC50 values from multiple experiments; read-out: BCL2_SPR IC50 BAD
BCL-2 (binding to BAD peptide), sequence (P10415 whole entry): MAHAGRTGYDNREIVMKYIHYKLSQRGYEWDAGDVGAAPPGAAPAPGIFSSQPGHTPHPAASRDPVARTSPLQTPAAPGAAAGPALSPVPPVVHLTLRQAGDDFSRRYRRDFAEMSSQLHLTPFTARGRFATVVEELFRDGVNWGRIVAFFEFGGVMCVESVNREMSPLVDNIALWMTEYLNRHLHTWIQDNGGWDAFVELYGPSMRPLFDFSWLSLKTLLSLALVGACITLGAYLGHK
How it was run: (§1)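 Compounds (6-point threefold series, 16 μM to 0.004 nM) preincubated 1 h with 56 nM BCL-2, then injected 60 s over biotinylated peptide captured on streptavidin chips at 25° C. Running buffer: 10 mM HEPES pH 7.4, 150 mM NaCl, 1.25 mM DTT, 3% DMSO, 0.05% polysorbate 20. % inhibition versus BCL-2-only binding gave IC50.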

[2] = molecular target: BCL-2 (binding to BAK peptide) (Homo sapiens, UniProt P10415); assay: SPR (Biacore) solution inhibition assay, BCL-2 binding to immobilized BAK peptide; details: biotinylated BAK peptide surface, 56 nM BCL-2, 25° C.; range = high and low IC50 values from multiple experiments; read-out: BCL2_SPR IC50 BAK
BCL-2 (binding to BAK peptide), sequence (P10415 whole entry): as above
How it was run: as §1

CCCCN(CCCC)C(=O)c1cc(C)n(-c2ccc(NC(=O)Cc3ccc(OC)c(Cl)c3)cc2C(=O)N2Cc3ccccc3C[C@H]2CO)n1 [Example 96]
IC50 [1]: 86.2 to 91.5 nM
IC50 [2]: 71.2 to 76 nM

CCCCN(CCCC)C(=O)c1cc(C)n(-c2ccc(NC(=O)Cc3ccc(OC)c(F)c3)cc2C(=O)N2Cc3ccccc3C[C@H]2CO)n1 [Example 97]
IC50 [1]: 201 to 210 nM
IC50 [2]: 146 to 168 nM

CCCCN(CCCC)C(=O)c1cc(C)n(-c2ccc(NC(=O)Cc3ccc(F)cc3)cc2C(=O)N2Cc3ccccc3C[C@H]2CO)n1 [Example 98]
IC50 [1]: 302 to 306 nM
IC50 [2]: 244 to 267 nM

CCCCN(CCCC)C(=O)c1cc(C)n(-c2ccc(NC(=O)C(CC(=O)N(C)C)c3ccccc3)cc2C(=O)N2Cc3ccccc3C[C@H]2CO)n1 (stereo partly drawn) [Example 99]
IC50 [1]: 130 to 171 nM
IC50 [2]: 111 to 144 nM

CCCCN(CCCC)C(=O)c1cc(C)n(-c2ccc(NC(=O)C(C)CC(=O)O)cc2C(=O)N2Cc3ccccc3C[C@H]2CO)n1 (stereo partly drawn) [Example 100]
IC50 [1]: 172 to 174 nM
IC50 [2]: 127 to 129 nM

CCCCN(CCCC)C(=O)c1cc(C)n(-c2ccc(NC(=O)C3CC(=O)N(Cc4ccccc4)C3)cc2C(=O)N2Cc3ccccc3C[C@H]2CO)n1 (stereo partly drawn) [Example 101]
IC50 [1]: 130 to 167 nM
IC50 [2]: 114 to 150 nM

CCCCN(CCCC)C(=O)c1cc(C)n(-c2ccc(NC(=O)c3cn4ccsc4n3)cc2C(=O)N2Cc3ccccc3C[C@H]2CO)n1 [Example 102]
IC50 [1]: 364 to 394 nM
IC50 [2]: 268 nM

CCCCC(CCCC)C(=O)c1cc(C)n(-c2ccc(NC(=O)C(CC(=O)O)C3CCCCC3)cc2C(=O)N2Cc3ccccc3C[C@H]2CO)n1 (stereo partly drawn) [Example 103]
IC50 [1]: 54.1 to 55.9 nM
IC50 [2]: 50.2 to 51.9 nM

CCCCN(CCCC)C(=O)c1cc(C)n(-c2ccc(NC(=O)C3CC(=O)N(CCc4ccc(OC)c(OC)c4)C3)cc2C(=O)N2Cc3ccccc3C[C@H]2CO)n1 (stereo partly drawn) [Example 104]
IC50 [1]: 351 to 376 nM
IC50 [2]: 252 to 256 nM

CCCCN(CCCC)C(=O)c1cc(C)n(-c2ccc(NC(=O)C(CCO)c3ccccc3)cc2C(=O)N2Cc3ccccc3C[C@H]2CO)n1 (stereo partly drawn) [Example 105]
IC50 [1]: 114 to 119 nM
IC50 [2]: 89.4 to 94.3 nM

CCCCN(CCCC)C(=O)c1cc(C)n(-c2ccc(NC(=O)Cc3nc(-c4ccccc4)oc3C)cc2C(=O)N2Cc3ccccc3C[C@H]2CO)n1 [Example 106]
IC50 [1]: 131 to 140 nM
IC50 [2]: 106 to 110 nM

CCCCN(CCCC)C(=O)c1cc(C)n(-c2ccc(NC(=O)c3cnn4cccnc34)cc2C(=O)N2Cc3ccccc3C[C@H]2CO)n1 [Example 107]
IC50 [1]: 693 to 748 nM
IC50 [2]: 497 to 520 nM

CCCCN(CCCC)C(=O)c1cc(C)n(-c2ccc(NC(=O)c3oc(C)nc3C)cc2C(=O)N2Cc3ccccc3C[C@H]2CO)n1 [Example 108]
IC50 [1]: 1020 to 1120 nM and 691 to 730 nM
IC50 [2]: 629 to 841 nM and 429 to 430 nM

CCCCN(CCCC)C(=O)c1cc(C)n(-c2ccc(NC(=O)c3cc(C)[nH]n3)cc2C(=O)N2Cc3ccccc3C[C@H]2CO)n1 [Example 109]
IC50 [1]: 477 to 528 nM
IC50 [2]: 505 to 525 nM

CCCCC(CCCC)C(=O)c1cc(C)n(-c2ccc(NC(=O)COc3cccc4ccccc34)cc2C(=O)N2Cc3ccccc3C[C@H]2CO)n1 [Example 110]
IC50 [1]: 273 to 318 nM
IC50 [2]: 250 to 272 nM

CCCCN(CCCC)C(=O)c1cc(C)n(-c2ccc(NC(=O)CC3NC(=O)NC3=O)cc2C(=O)N2Cc3ccccc3C[C@H]2CO)n1 (stereo partly drawn) [Example 111]
IC50 [1]: 763 to 799 nM
IC50 [2]: 553 to 566 nM

CCCCN(CCCC)C(=O)c1cc(C)n(-c2ccc(NC(=O)c3n[nH]c4c3CCC4)cc2C(=O)N2Cc3ccccc3C[C@H]2CO)n1 [Example 112]
IC50 [1]: 964 to 1030 nM
IC50 [2]: 696 to 875 nM

CCCCN(CCCC)C(=O)c1cc(C)n(-c2ccc(NC(=O)[C@H](C)c3ccccc3)cc2C(=O)N2Cc3ccccc3C[C@H]2CO)n1 [Example 113]
IC50 [1]: 671 to 708 nM
IC50 [2]: 562 to 660 nM

CCCCN(CCCC)C(=O)c1cc(C)n(-c2ccc(NC(=O)C(C)c3ccc4ccccc4c3)cc2C(=O)N2Cc3ccccc3C[C@H]2CO)n1 (stereo partly drawn) [Example 114]
IC50 [1]: 61.9 to 73.1 nM and 64.1 to 72.9 nM and 51 to 54.5 nM
IC50 [2]: 57.2 to 59.9 nM and 58.3 to 62 nM and 52.4 to 53.4 nM

CCCCN(CCCC)C(=O)c1cc(C)n(-c2ccc(NC(=O)C3CC(=O)N(c4ccc(OCC)cc4)C3)cc2C(=O)N2Cc3ccccc3C[C@H]2CO)n1 (stereo partly drawn) [Example 115]
IC50 [1]: 180 to 204 nM
IC50 [2]: 153 to 154 nM

CCCCN(CCCC)C(=O)c1cc(C)n(-c2ccc(NC(=O)c3cccn(Cc4ccccc4)c3=O)cc2C(=O)N2Cc3ccccc3C[C@H]2CO)n1 [Example 116]
IC50 [1]: 839 to 856 nM
IC50 [2]: 731 to 786 nM

CCCCN(CCCC)C(=O)c1cc(C)n(-c2ccc(NC(=O)C(CC(N)=O)c3ccccc3)cc2C(=O)N2Cc3ccccc3C[C@H]2CO)n1 (stereo partly drawn) [Example 117]
IC50 [1]: 82.1 to 88.8 nM
IC50 [2]: 67.5 to 71.4 nM

CCCCN(CCCC)C(=O)c1cc(C)n(-c2ccc(NC(=O)Cc3cccnc3)cc2C(=O)N2Cc3ccccc3C[C@H]2CO)n1 [Example 118]
IC50 [1]: 164 to 171 nM
IC50 [2]: 139 to 153 nM

CCCCN(CCCC)C(=O)c1cc(C)n(-c2ccc(NC(=O)CN3CC(c4ccccc4)CC3=O)cc2C(=O)N2Cc3ccccc3C[C@H]2CO)n1 (stereo partly drawn) [Example 119]
IC50 [1]: 111 to 112 nM
IC50 [2]: 94 to 98.2 nM

CCCCN(CCCC)C(=O)c1cc(C)n(-c2ccc(NC(=O)c3cc(-c4ccccc4)nn3-c3ccc(F)cc3)cc2C(=O)N2Cc3ccccc3C[C@H]2CO)n1 [Example 120]
IC50 [1]: 726 to 732 nM
IC50 [2]: 494 to 559 nM

CCCCN(CCCC)C(=O)c1cc(C)n(-c2ccc(NC(=O)Cc3noc4ccccc34)cc2C(=O)N2Cc3ccccc3C[C@H]2CO)n1 [Example 121]
IC50 [1]: 61.2 to 66.9 nM
IC50 [2]: 54.4 to 58.5 nM

CCCCN(CCCC)C(=O)c1cc(C)n(-c2ccc(NC(=O)c3csc(N4CCOCC4)n3)cc2C(=O)N2Cc3ccccc3C[C@H]2CO)n1 [Example 122]
IC50 [1]: 317 to 325 nM
IC50 [2]: 237 to 257 nM

CCCCN(CCCC)C(=O)c1cc(C)n(-c2ccc(NC(=O)c3cc4ccccc4cn3)cc2C(=O)N2Cc3ccccc3C[C@H]2CO)n1 [Example 123]
IC50 [1]: 293 to 339 nM
IC50 [2]: 249 to 279 nM

CCCCN(CCCC)C(=O)c1cc(C)n(-c2ccc(NC(=O)CCc3c[nH]c4c(Cl)cccc34)cc2C(=O)N2Cc3ccccc3C[C@H]2CO)n1 [Example 124]
IC50 [1]: 254 to 260 nM
IC50 [2]: 215 to 235 nM

CCCCN(CCCC)C(=O)c1cc(C)n(-c2ccc(NC(=O)CNC(=O)c3cccnc3)cc2C(=O)N2Cc3ccccc3C[C@H]2CO)n1 [Example 125]
IC50 [1]: 88.7 to 103 nM
IC50 [2]: 63.5 to 77.5 nM

CCCCN(CCCC)C(=O)c1cc(C)n(-c2ccc(NC(=O)COc3ccc4ccccc4c3)cc2C(=O)N2Cc3ccccc3C[C@H]2CO)n1 [Example 126]
IC50 [1]: 60 to 61.4 nM
IC50 [2]: 48.8 to 50.5 nM

CCCCN(CCCC)C(=O)c1cc(C)n(-c2ccc(NC(=O)COc3cc(Cl)c(Cl)cc3Cl)cc2C(=O)N2Cc3ccccc3C[C@H]2CO)n1 [Example 127]
IC50 [1]: 131 to 138 nM
IC50 [2]: 106 to 108 nM

CCCCN(CCCC)C(=O)c1cc(C)n(-c2ccc(NC(=O)COC3CCCCC3)cc2C(=O)N2Cc3ccccc3C[C@H]2CO)n1 [Example 128]
IC50 [1]: 270 to 272 nM
IC50 [2]: 177 to 178 nM

CCCCN(CCCC)C(=O)c1cc(C)n(-c2ccc(NC(=O)CSc3cc(C)c(Cl)cc3Cl)cc2C(=O)N2Cc3ccccc3C[C@H]2CO)n1 [Example 129]
IC50 [1]: 89.5 to 92.9 nM
IC50 [2]: 70.7 to 77.1 nM

CCCCN(CCCC)C(=O)c1cc(C)n(-c2ccc(NC(=O)CCC3COc4ccccc43)cc2C(=O)N2Cc3ccccc3C[C@H]2CO)n1 (stereo partly drawn) [Example 130]
IC50 [1]: 60.7 to 61.4 nM
IC50 [2]: 50.2 to 53.1 nM

CCCCN(CCCC)C(=O)c1cc(C)n(-c2ccc(NC(=O)Cc3ccc(OC)c(Br)c3)cc2C(=O)N2Cc3ccccc3C[C@H]2CO)n1 [Example 131]
IC50 [1]: 27.8 to 36.6 nM
IC50 [2]: 23.3 to 30.8 nM

CCCCN(CCCC)C(=O)c1cc(C)n(-c2ccc(NC(=O)c3cc(OC)cc([N+](=O)[O-])c3OC)cc2C(=O)N2Cc3ccccc3C[C@H]2CO)n1 [Example 132]
IC50 [1]: 332 to 338 nM
IC50 [2]: 246 to 248 nM

CCCCN(CCCC)C(=O)c1cc(C)n(-c2ccc(NC(=O)CCCOCc3ccccc3)cc2C(=O)N2Cc3ccccc3C[C@H]2CO)n1 [Example 133]
IC50 [1]: 410 to 438 nM
IC50 [2]: 310 to 360 nM

CCCCN(CCCC)C(=O)c1cc(C)n(-c2ccc(NC(=O)c3cc(-c4cccc(O)c4)[nH]n3)cc2C(=O)N2Cc3ccccc3C[C@H]2CO)n1 [Example 134]
IC50 [1]: 918 to 958 nM
IC50 [2]: 739 to 881 nM

CCCCN(CCCC)C(=O)c1cc(C)n(-c2ccc(NC(=O)C(CC#N)c3ccccc3)cc2C(=O)N2Cc3ccccc3C[C@H]2CO)n1 (stereo partly drawn) [Example 135]
IC50 [1]: 129 to 140 nM
IC50 [2]: 107 to 111 nM

CCCCN(CCCC)C(=O)c1cc(C)n(-c2ccc(NC(=O)Cc3ccc(OC)c(OC)c3)cc2C(=O)N2Cc3ccccc3C[C@H]2CO)n1 [Example 136]
IC50 [1]: 119 to 123 nM
IC50 [2]: 95.4 to 98.2 nM

CCCCN(CCCC)C(=O)c1cc(C)n(-c2ccc(NC(=O)Cc3ccc(Cl)cc3)cc2C(=O)N2Cc3ccccc3C[C@H]2CO)n1 [Example 137]
IC50 [1]: 83 to 92.7 nM
IC50 [2]: 69.4 to 74.9 nM
